Columns and labels:
Experiment in all cases: relative viability (nuclei count vs DMSO), 5 days (fraction); higher = more cells survive
[1] = test system: NCI-H727
Summary of the method: (§1)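 Relative viability equals treated-well nuclei counts divided by vehicle-well nuclei counts. Counts came from 4× images of lung cancer cell lines grown in 1536-well plates for 5 days after pin-tool dosing on the day after seeding. Dosing used one drug alone or a fixed anchor-drug dose plus five library-drug doses (not always all listed) in √10 steps, and values are medians of duplicate plates.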

[2] = test system: NCI-H1666
Summary of the method: as §1

[3] = test system: NCI-H2342
Summary of the method: as §1

[4] = test system: BEN
Summary of the method: as §1

[5] = test system: NCI-H650
Summary of the method: as §1

[6] = test system: NCI-H647
Summary of the method: as §1

[7] = test system: LXF-289
Summary of the method: as §1

[8] = test system: HCC-827
Summary of the method: as §1

[9] = test system: NCI-H441
Summary of the method: as §1

[10] = test system: NCI-H1915
Summary of the method: as §1

[11] = test system: NCI-H2228
Summary of the method: as §1

[12] = test system: SW 1573
Summary of the method: as §1

[13] = test system: EPLC-272H
Summary of the method: as §1

[14] = test system: NCI-H2347
Summary of the method: as §1

[15] = test system: NCI-H2170
Summary of the method: as §1

[16] = test system: NCI-H1437
Summary of the method: as §1

[17] = test system: NCI-H522
Summary of the method: as §1

[18] = test system: NCI-H23
Summary of the method: as §1

[19] = test system: NCI-H358
Summary of the method: as §1

[20] = test system: LU99A
Summary of the method: as §1

[21] = test system: NCI-H322M
Summary of the method: as §1

[22] = test system: SK-MES-1
Summary of the method: as §1

[23] = test system: HOP-62
Summary of the method: as §1

## Oc1nc(-c2ccc(C(F)(F)F)cc2)nc2c1CSCC2 [XAV939] + O=C(c1cc(Cc2n[nH]c(=O)c3ccccc23)ccc1F)N1CCN(C(=O)C2CC2)CC1 [Olaparib] (partner 8 µM)
[1]; first compound 0.08 µM
  relative viability: 0.706
[1]; first compound 0.8 µM
  relative viability: 0.696
[1]; first compound 2.53 µM
  relative viability: 0.678
[2]; first compound 0.08 µM
  relative viability: 0.748
[2]; first compound 0.253 µM
  relative viability: 0.741
[2]; first compound 0.8 µM
  relative viability: 0.745
[2]; first compound 2.53 µM
  relative viability: 0.754
[3]; first compound 0.08 µM
  relative viability: 0.47
[3]; first compound 0.253 µM
  relative viability: 0.431
[3]; first compound 0.8 µM
  relative viability: 0.376
[3]; first compound 2.53 µM
  relative viability: 0.288
[4]; first compound 0.08 µM
  relative viability: 1.14
[4]; first compound 0.253 µM
  relative viability: 1.04
[4]; first compound 0.8 µM
  relative viability: 1.02
[4]; first compound 2.53 µM
  relative viability: 0.845
[5]; first compound 0.08 µM
  relative viability: 0.413
[5]; first compound 0.253 µM
  relative viability: 0.426
[5]; first compound 0.8 µM
  relative viability: 0.47
[5]; first compound 2.53 µM
  relative viability: 0.372
[6]; first compound 0.08 µM
  relative viability: 0.734
[6]; first compound 0.253 µM
  relative viability: 0.451
[6]; first compound 0.8 µM
  relative viability: 0.506
[6]; first compound 2.53 µM
  relative viability: 0.439
[7]; first compound 0.08 µM
  relative viability: 1.13
[7]; first compound 0.253 µM
  relative viability: 1.05
[7]; first compound 0.8 µM
  relative viability: 1.08
[7]; first compound 2.53 µM
  relative viability: 1.07
[8]; first compound 0.08 µM
  relative viability: 0.622
[8]; first compound 0.253 µM
  relative viability: 0.667
[8]; first compound 0.8 µM
  relative viability: 0.62
[8]; first compound 2.53 µM
  relative viability: 0.769
[9]; first compound 0.08 µM
  relative viability: 0.68
[9]; first compound 0.253 µM
  relative viability: 0.448
[9]; first compound 0.8 µM
  relative viability: 0.613
[9]; first compound 2.53 µM
  relative viability: 0.521
[10]; first compound 0.08 µM
  relative viability: 0.247
[10]; first compound 0.253 µM
  relative viability: 0.256
[10]; first compound 0.8 µM
  relative viability: 0.239
[10]; first compound 2.53 µM
  relative viability: 0.275
[11]; first compound 0.08 µM
  relative viability: 0.945
[11]; first compound 0.253 µM
  relative viability: 0.562
[11]; first compound 0.8 µM
  relative viability: 0.65
[11]; first compound 2.53 µM
  relative viability: 0.608
[12]; first compound 0.08 µM
  relative viability: 0.437
[12]; first compound 0.253 µM
  relative viability: 0.499
[12]; first compound 0.8 µM
  relative viability: 0.485
[12]; first compound 2.53 µM
  relative viability: 0.379
[13]; first compound 0.08 µM
  relative viability: 0.745
[13]; first compound 0.253 µM
  relative viability: 0.89
[13]; first compound 0.8 µM
  relative viability: 0.97
[13]; first compound 2.53 µM
  relative viability: 0.719
[14]; first compound 0.08 µM
  relative viability: 0.667
[14]; first compound 0.253 µM
  relative viability: 0.543
[14]; first compound 0.8 µM
  relative viability: 0.569
[14]; first compound 2.53 µM
  relative viability: 0.517
[15]; first compound 0.08 µM
  relative viability: 0.56
[15]; first compound 0.253 µM
  relative viability: 0.451
[15]; first compound 0.8 µM
  relative viability: 0.5
[15]; first compound 2.53 µM
  relative viability: 0.402
[16]; first compound 0.08 µM
  relative viability: 0.631
[16]; first compound 0.253 µM
  relative viability: 0.593
[16]; first compound 0.8 µM
  relative viability: 0.558
[16]; first compound 2.53 µM
  relative viability: 0.355
[17]; first compound 0.08 µM
  relative viability: 0.887
[17]; first compound 0.253 µM
  relative viability: 0.649
[17]; first compound 0.8 µM
  relative viability: 0.63
[17]; first compound 2.53 µM
  relative viability: 0.689
[18]; first compound 0.08 µM
  relative viability: 0.323
[18]; first compound 0.8 µM
  relative viability: 0.278
[18]; first compound 2.53 µM
  relative viability: 0.264
[19]; first compound 0.08 µM
  relative viability: 0.615
[19]; first compound 0.253 µM
  relative viability: 0.5
[19]; first compound 0.8 µM
  relative viability: 0.598
[19]; first compound 2.53 µM
  relative viability: 0.563
[20]; first compound 0.08 µM
  relative viability: 0.258
[20]; first compound 0.253 µM
  relative viability: 0.257
[20]; first compound 0.8 µM
  relative viability: 0.271
[20]; first compound 2.53 µM
  relative viability: 0.258
[21]; first compound 0.08 µM
  relative viability: 0.874
[21]; first compound 0.253 µM
  relative viability: 0.752
[21]; first compound 0.8 µM
  relative viability: 0.667
[21]; first compound 2.53 µM
  relative viability: 0.661
[22]; first compound 0.08 µM
  relative viability: 0.664
[22]; first compound 0.253 µM
  relative viability: 0.605
[22]; first compound 0.8 µM
  relative viability: 0.621
[22]; first compound 2.53 µM
  relative viability: 0.465
[23]; first compound 0.08 µM
  relative viability: 0.369
[23]; first compound 0.253 µM
  relative viability: 0.351
[23]; first compound 0.8 µM
  relative viability: 0.502
[23]; first compound 2.53 µM
  relative viability: 0.371
